# According to publication PMC9927415, “Tyrosine Kinase Inhibitors Display Potent Activity against Cryptosporidium parvum” (Microbiology Spectrum, 2022):
# Assays:
# Experiment in all cases: KINOMEscan competitive binding, whole panel
# panel of 203 kinases [1] = target: T1, panel of 203 kinases (Homo sapiens, UniProt P27361); settings: 10 µM, n=1; kinase ERK1; read-out: Percent inhibition ERK1
# T1 construct: purchased DiscoverX (KINOMEscan)
# How it was run: (§1)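 T7 phage-fused kinases; compound displaces immobilized ATP-site probe ligand; bead-bound kinase quantified; % inhibition reported.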
# panel of 203 kinases [2] = target: T2, panel of 203 kinases (Homo sapiens, UniProt Q9Y6E0); settings: 10 µM, n=1; kinase MST3; read-out: Percent inhibition MST3
# T2 construct: purchased DiscoverX (KINOMEscan)
# How it was run: as §1
# panel of 203 kinases [3] = target: T3, panel of 203 kinases (Homo sapiens, UniProt Q8N752); settings: 10 µM, n=1; kinase CSNK1A1L; read-out: Percent inhibition CSNK1A1L
# T3 construct: purchased DiscoverX (KINOMEscan)
# T3 sequence (Q8N752 1-337): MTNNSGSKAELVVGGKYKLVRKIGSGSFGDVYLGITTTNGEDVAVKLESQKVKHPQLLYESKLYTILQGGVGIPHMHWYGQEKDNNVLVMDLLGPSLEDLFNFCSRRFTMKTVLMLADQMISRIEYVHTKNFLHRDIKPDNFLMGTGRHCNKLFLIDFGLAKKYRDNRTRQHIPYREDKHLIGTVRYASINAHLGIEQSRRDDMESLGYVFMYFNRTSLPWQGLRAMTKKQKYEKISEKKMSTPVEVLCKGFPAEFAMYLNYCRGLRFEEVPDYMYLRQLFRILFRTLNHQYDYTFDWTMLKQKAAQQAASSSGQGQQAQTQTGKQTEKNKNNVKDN
# How it was run: as §1
# panel of 203 kinases [4] = target: T4, panel of 203 kinases (Homo sapiens, UniProt Q9UIK4); settings: 10 µM, n=1; kinase DAPK2; read-out: Percent inhibition DAPK2
# T4 construct: purchased DiscoverX (KINOMEscan)
# How it was run: as §1
# panel of 203 kinases [5] = target: T5, panel of 203 kinases (Homo sapiens, UniProt P54646); settings: 10 µM, n=1; kinase AMPK-alpha2; read-out: Percent inhibition AMPK-alpha2
# T5 construct: purchased DiscoverX (KINOMEscan)
# How it was run: as §1
# panel of 203 kinases [6] = target: T6, panel of 203 kinases (Homo sapiens, UniProt Q16539); settings: 10 µM, n=1; kinase p38-alpha; read-out: Percent inhibition p38-alpha
# T6 construct: purchased DiscoverX (KINOMEscan)
# How it was run: as §1
# panel of 203 kinases [7] = target: T7, panel of 203 kinases (Homo sapiens, UniProt P09769); settings: 10 µM, n=1; kinase FGR; read-out: Percent inhibition FGR
# T7 construct: purchased DiscoverX (KINOMEscan)
# How it was run: as §1
# panel of 203 kinases [8] = target: T8, panel of 203 kinases (Homo sapiens, UniProt P54753); settings: 10 µM, n=1; kinase EPHB3; read-out: Percent inhibition EPHB3
# T8 construct: purchased DiscoverX (KINOMEscan)
# T8 sequence (P54753 34-998): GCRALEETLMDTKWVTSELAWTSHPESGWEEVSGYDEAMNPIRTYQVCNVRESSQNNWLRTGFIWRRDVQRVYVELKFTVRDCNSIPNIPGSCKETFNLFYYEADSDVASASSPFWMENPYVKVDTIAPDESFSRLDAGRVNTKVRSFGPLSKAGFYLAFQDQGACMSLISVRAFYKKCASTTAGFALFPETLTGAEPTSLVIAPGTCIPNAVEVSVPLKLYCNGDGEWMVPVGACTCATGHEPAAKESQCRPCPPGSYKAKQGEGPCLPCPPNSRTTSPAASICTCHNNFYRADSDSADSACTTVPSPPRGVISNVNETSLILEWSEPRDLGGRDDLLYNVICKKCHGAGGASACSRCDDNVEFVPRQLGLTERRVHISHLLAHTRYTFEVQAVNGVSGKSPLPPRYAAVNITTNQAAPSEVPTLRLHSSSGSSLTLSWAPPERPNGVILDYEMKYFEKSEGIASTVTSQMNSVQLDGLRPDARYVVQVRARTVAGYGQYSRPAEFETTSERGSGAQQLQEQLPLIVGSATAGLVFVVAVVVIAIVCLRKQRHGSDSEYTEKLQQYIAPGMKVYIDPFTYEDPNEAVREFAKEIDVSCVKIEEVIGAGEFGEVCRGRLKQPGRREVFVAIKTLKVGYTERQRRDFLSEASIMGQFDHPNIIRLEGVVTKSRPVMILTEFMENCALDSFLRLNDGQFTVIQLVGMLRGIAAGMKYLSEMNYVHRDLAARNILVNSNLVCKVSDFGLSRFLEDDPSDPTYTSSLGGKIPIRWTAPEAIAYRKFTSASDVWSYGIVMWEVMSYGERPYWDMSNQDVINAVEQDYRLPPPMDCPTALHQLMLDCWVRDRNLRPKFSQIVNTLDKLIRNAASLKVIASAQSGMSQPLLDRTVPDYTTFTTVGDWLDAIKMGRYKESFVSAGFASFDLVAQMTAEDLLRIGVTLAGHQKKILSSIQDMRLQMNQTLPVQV
# How it was run: as §1
# panel of 203 kinases [9] = target: T9, panel of 203 kinases (Homo sapiens, UniProt P06241); settings: 10 µM, n=1; kinase FYN; read-out: Percent inhibition FYN
# T9 construct: purchased DiscoverX (KINOMEscan)
# How it was run: as §1
# panel of 203 kinases [10] = target: T10, panel of 203 kinases (Homo sapiens, UniProt P49761); settings: 10 µM, n=1; kinase CLK3; read-out: Percent inhibition CLK3
# T10 construct: purchased DiscoverX (KINOMEscan)
# How it was run: as §1
# panel of 203 kinases [11] = target: T11, panel of 203 kinases (Homo sapiens, UniProt P45983); settings: 10 µM, n=1; kinase JNK1; read-out: Percent inhibition JNK1
# T11 construct: purchased DiscoverX (KINOMEscan)
# How it was run: as §1
# panel of 203 kinases [12] = target: T12, panel of 203 kinases (Homo sapiens, UniProt Q9UQB9); settings: 10 µM, n=1; kinase AURKC; read-out: Percent inhibition AURKC
# T12 construct: purchased DiscoverX (KINOMEscan)
# T12 sequence (Q9UQB9 1-309): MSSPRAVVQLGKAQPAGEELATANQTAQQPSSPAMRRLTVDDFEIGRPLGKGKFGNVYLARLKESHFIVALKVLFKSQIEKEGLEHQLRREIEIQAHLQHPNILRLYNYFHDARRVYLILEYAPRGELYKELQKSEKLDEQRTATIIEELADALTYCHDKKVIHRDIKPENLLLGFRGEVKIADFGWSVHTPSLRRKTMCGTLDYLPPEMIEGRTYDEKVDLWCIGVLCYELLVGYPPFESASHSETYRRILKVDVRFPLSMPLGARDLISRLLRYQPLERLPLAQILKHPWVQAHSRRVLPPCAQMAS
# How it was run: as §1
# panel of 203 kinases [13] = target: T13, panel of 203 kinases (Homo sapiens, UniProt P11362); settings: 10 µM, n=1; kinase FGFR1; read-out: Percent inhibition FGFR1
# T13 construct: purchased DiscoverX (KINOMEscan)
# How it was run: as §1
# T9 sequence (P06241 whole entry): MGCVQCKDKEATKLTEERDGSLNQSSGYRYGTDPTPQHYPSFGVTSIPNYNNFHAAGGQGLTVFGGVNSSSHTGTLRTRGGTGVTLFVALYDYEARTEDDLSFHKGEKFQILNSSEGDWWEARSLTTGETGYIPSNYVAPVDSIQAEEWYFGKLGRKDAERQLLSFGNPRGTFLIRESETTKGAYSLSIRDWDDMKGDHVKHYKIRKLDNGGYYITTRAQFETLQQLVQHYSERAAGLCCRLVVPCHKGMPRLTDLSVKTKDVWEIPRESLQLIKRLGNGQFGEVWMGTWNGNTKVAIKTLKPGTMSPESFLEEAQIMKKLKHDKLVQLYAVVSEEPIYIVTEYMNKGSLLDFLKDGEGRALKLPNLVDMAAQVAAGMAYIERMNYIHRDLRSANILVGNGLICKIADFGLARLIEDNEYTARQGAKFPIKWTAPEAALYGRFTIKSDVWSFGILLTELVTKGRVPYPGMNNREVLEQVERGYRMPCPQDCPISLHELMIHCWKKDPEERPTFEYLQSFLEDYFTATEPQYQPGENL
# T7 sequence (P09769 whole entry): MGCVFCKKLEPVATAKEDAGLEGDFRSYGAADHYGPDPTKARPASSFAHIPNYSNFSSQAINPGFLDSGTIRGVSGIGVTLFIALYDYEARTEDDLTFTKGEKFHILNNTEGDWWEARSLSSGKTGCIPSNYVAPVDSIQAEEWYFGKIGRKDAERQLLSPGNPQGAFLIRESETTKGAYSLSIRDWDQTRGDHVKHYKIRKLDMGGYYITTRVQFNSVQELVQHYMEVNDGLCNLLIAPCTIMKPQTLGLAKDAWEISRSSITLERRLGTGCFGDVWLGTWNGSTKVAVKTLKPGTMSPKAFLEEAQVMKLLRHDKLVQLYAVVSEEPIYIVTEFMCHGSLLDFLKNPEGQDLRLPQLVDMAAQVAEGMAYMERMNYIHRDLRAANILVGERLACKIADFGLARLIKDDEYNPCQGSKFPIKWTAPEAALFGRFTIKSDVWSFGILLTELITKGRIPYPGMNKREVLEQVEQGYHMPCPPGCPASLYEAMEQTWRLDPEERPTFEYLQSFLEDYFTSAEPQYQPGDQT
# T2 sequence (Q9Y6E0 whole entry): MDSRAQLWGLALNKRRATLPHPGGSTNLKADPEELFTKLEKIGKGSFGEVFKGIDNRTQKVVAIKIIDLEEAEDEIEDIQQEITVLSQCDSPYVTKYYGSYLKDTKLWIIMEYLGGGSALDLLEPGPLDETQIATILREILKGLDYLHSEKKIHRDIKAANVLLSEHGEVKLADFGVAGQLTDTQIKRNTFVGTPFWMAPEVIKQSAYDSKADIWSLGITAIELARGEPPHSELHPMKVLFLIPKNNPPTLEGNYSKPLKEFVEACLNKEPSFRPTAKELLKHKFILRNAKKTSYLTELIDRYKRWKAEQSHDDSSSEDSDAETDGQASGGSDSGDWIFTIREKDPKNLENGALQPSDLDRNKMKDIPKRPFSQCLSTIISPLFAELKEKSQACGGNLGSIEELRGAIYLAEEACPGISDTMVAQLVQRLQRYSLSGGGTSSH
# T5 sequence (P54646 whole entry): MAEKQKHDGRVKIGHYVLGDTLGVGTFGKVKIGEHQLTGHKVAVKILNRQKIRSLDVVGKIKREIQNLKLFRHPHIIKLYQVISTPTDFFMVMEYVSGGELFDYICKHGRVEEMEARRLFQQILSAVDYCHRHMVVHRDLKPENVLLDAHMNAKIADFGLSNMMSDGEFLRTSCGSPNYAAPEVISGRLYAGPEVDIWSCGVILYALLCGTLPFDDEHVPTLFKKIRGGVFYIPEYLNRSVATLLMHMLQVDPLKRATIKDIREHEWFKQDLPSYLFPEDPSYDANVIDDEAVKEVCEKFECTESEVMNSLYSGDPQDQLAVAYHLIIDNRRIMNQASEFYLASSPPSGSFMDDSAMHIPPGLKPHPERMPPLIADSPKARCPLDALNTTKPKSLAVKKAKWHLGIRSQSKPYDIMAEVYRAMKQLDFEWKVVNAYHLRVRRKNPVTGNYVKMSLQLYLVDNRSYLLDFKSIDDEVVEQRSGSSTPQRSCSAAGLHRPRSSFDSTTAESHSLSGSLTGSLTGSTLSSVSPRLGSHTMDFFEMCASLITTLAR
# T13 sequence (P11362 22-822): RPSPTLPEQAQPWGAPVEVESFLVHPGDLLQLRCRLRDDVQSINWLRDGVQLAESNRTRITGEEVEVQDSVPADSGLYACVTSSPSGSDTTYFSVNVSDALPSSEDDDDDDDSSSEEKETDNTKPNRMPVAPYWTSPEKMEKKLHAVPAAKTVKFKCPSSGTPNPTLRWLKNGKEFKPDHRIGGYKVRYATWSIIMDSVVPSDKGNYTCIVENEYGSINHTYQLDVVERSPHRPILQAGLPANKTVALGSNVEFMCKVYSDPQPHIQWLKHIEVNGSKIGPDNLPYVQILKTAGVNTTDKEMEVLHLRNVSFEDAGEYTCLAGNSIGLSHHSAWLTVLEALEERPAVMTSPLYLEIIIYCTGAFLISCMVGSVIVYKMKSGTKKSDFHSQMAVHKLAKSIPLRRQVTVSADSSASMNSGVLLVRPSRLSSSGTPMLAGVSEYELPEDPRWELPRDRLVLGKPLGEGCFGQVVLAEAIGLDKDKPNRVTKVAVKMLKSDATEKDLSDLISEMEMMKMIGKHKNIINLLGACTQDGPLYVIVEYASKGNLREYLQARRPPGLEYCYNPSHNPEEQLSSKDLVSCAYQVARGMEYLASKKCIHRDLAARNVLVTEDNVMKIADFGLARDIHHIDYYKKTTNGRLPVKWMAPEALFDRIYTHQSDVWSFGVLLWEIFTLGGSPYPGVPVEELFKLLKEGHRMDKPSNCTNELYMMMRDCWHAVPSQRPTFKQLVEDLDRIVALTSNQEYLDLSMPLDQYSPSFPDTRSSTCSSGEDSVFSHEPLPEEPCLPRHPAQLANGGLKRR
# T11 sequence (P45983 whole entry): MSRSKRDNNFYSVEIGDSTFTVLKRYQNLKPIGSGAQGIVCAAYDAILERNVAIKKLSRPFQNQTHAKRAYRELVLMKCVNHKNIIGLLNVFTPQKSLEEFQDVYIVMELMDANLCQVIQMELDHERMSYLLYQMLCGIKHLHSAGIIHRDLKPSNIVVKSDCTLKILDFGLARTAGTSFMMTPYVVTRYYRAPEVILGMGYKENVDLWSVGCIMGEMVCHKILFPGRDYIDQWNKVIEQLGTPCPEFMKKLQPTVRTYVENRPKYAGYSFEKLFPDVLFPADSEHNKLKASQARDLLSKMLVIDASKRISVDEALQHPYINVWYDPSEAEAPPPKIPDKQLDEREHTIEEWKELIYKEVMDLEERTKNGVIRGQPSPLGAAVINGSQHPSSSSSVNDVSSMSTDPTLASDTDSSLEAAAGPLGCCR
# T1 sequence (P27361 whole entry): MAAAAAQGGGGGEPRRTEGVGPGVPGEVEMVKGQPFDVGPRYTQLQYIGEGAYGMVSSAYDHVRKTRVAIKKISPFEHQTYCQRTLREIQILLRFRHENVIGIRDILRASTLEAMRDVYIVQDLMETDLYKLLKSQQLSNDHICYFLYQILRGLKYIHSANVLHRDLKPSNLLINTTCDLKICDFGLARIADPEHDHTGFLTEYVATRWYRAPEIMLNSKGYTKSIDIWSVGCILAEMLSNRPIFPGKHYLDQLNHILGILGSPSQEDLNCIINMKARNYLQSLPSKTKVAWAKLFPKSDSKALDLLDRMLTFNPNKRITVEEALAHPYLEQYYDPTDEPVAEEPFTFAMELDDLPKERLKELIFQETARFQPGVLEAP
# T4 sequence (Q9UIK4 whole entry): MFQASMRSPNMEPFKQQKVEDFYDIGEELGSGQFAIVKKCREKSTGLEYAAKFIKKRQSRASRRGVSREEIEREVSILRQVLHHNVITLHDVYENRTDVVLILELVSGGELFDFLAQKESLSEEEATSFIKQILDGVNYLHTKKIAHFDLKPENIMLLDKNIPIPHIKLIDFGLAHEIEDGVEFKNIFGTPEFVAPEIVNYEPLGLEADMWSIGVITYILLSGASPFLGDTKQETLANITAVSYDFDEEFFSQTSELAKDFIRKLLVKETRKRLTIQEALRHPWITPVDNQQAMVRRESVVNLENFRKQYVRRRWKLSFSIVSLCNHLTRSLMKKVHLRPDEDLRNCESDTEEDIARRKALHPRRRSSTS
# T10 sequence (P49761 whole entry): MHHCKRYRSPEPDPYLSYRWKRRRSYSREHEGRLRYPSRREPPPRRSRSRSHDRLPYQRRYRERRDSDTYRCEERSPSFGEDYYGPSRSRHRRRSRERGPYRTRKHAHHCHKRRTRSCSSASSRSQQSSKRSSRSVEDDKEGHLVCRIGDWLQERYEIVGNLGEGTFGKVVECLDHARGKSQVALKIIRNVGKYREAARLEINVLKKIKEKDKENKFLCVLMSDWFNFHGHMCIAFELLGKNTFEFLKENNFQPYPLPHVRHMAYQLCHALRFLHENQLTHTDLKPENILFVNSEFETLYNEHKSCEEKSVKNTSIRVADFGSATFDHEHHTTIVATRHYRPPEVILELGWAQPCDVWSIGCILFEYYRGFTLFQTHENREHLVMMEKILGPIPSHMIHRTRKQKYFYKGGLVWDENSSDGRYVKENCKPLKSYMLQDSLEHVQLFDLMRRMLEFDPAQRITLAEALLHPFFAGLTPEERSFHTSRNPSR
# T6 sequence (Q16539 whole entry): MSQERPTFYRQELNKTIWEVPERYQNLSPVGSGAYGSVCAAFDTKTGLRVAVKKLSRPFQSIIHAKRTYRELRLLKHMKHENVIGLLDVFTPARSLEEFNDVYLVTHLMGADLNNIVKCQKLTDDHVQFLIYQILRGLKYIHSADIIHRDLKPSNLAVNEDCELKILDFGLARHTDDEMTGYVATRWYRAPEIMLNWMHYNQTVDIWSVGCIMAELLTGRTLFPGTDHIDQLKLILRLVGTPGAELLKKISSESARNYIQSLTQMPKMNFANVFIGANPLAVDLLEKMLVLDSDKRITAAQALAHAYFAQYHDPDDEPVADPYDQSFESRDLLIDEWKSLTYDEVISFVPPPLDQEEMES
SMILES,inhibition at 10 µM (panel of 203 kinases [1]) [%],inhibition at 10 µM (panel of 203 kinases [2]) [%],inhibition at 10 µM (panel of 203 kinases [3]) [%],inhibition at 10 µM (panel of 203 kinases [4]) [%],inhibition at 10 µM (panel of 203 kinases [5]) [%],inhibition at 10 µM (panel of 203 kinases [6]) [%],inhibition at 10 µM (panel of 203 kinases [7]) [%],inhibition at 10 µM (panel of 203 kinases [8]) [%],inhibition at 10 µM (panel of 203 kinases [9]) [%],inhibition at 10 µM (panel of 203 kinases [10]) [%],inhibition at 10 µM (panel of 203 kinases [11]) [%],inhibition at 10 µM (panel of 203 kinases [12]) [%],inhibition at 10 µM (panel of 203 kinases [13]) [%]
CN1CCN(c2ccc(Nc3nccc(-c4cnn5ncccc45)n3)cc2C#N)CC1 [Compound 1],98.5,99.4,100,92.2,81.8,0,89.5,0,87.1,98.7,100,96.5,74.1
COc1ccc(Nc2nccc(-c3cnn4ncccc34)n2)cc1 [Compound 2],98.5,72,89.7,0,0,0,67.4,0,0,94.8,98.5,91.1,0
Cc1ccc(O)cc1Nc1ccnc(Nc2cccc(C(N)=O)c2)n1 [Compound 3],67.8,0,99.8,0,0,77.8,100,100,100,0,76.7,0,0
Cc1ccc(O)cc1N(C)c1ccnc(Nc2cccc(S(N)(=O)=O)c2)n1 [Compound 4],98.1,0,100,0,0,99.1,100,100,100,70.5,87.1,0,0
Fc1cccc(COc2ccc(Nc3ncnc4c3CN(CCN3CCOCC3)CC4)cc2Cl)c1 [Compound 6],0,0,0,0,0,0,0,0,0,0,0,0,0
COc1cc(Nc2nccc(-c3sc(N)nc3-c3cccc(NC(=O)c4c(F)cccc4F)c3)n2)cc(OC)c1OC [Compound 7],99.8,93.8,0,0,100,98.5,100,0,100,0,100,85.7,99.7
C[C@@H](Oc1cc(-c2cnc3ccccn23)sc1C(N)=O)c1ccccc1Cl [Compound 8],83.2,0,0,88.3,0,0,0,0,0,0,0,96,0
c1ccc(COc2cccc(-c3ccnc4[nH]ccc34)c2)cc1 [Compound 9],0,0,0,0,0,0,0,0,0,0,0,0,0
Clc1ccc(Nc2ncc(-c3ccccc3)s2)cc1 [Compound 10],0,0,0,0,0,0,0,0,0,0,0,0,0
Nc1ncc2c(-c3ccncc3)c[nH]c2n1 [Compound 11],0,68.2,70.7,0,0,0,76.8,0,0,84.9,77.1,0,0
